Tests used:
[1] = biological target: KDR kinase (790-1356 AA) (Homo sapiens (Human), UniProt P35968); assay: Inhibitory activity at KDR kinase (Lance Ultra Ulight-TK assay); format: biochemical
In short: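 Kinase (20 nM final) and compound were premixed 20 min at 30 °C, then phosphorylation ran 2 h at 30 °C with ATP at 90 μM and Ulight-TK substrate at 50 μM, pH 7.5, Mg2+ and Mn2+ present.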

[2] = biological target: B-Raf kinase (Homo sapiens (Human), UniProt P15056); assay: Inhibitory activity at B-Raf kinase (ADP-GLO assay); format: biochemical
Chain of B-Raf kinase (P15056 416-766): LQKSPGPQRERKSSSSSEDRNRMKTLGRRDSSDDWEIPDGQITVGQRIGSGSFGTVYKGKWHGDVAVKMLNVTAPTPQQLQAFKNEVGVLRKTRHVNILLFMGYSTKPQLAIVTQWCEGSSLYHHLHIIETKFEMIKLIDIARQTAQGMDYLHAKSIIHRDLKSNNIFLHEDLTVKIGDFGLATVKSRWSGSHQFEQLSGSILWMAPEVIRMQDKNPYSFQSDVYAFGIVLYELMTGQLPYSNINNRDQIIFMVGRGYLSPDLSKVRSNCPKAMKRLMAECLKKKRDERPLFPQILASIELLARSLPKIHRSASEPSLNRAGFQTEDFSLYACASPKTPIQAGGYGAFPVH
Protocol: Inhibitory Activity of Compounds at B-Raf Kinase
• [Experimental method]: Use ADP-GLO™ assay kit from Promega to evaluate the inhibitory activity of compounds at B-Raf • [Instrument]: PerKinElmer's ENVISION plate reader • [Material]: Optiplate-384 well plate (PerKinElmer), kinase buffer (50 mM Hepes pH7.5, 1 mM EGTA, 2 mM DTT, 10 mM Mg^2+, 0.05% BSA), B-Raf kinase (Millipore, catalogue #14-530-K), GST-MEK1 substrate (Carna, catalogue #07-141-10), Super pure ATP (Promega), ADP-GLO™ assay kit (Promega, catalogue # V9102), DMSO (Sigma, catalogue #34869), purified water (Millipore, type: Milli-Q). • [Study conditions]: Mix B-Raf kinase (final concentration: 5 nM) and compound (DMSO final concentration: 0.25%) and preincubate at 30° C. for 20 min, then add ATP (final concentration: 6 μM) and reaction substrate (final concentration: 30 nM), React for 2 hrs at 30° C. After reaction, add ADP-GLO™ reagent, react for 40 min at room temperature, then add ADP-GLO™ detecting agent, react for 30 min at room temperature. After that, use ENVSION to measure the […]. • [Samples]: Compounds in the examples and Sorafenib (positive control) • [Data analysis]: Use CBIS data analysis software to calculate IC50 values

[3] = system: pERK in MDA-MB-231 cells; assay: Inhibitory activity at pERK (In Cell Western, MDA-MB-231 cells); format: cell-based; settings: Homo sapiens, MDA-MB-231, MDA-MB-231 cells; read-out: MDA-MB-231 pERK IC50
In short: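 pERK was measured by in-cell immunofluorescence (PI nuclear counterstain, Acumen read-out) in fixed MDA-MB-231 cells. Compound exposure lasted 2 h in DMEM with 0.1% BSA, using eight 3-fold dilutions starting at 30 μM final and 0.3% DMSO. IC50 values were derived from the resulting curves.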

[4] = system: PLC-PRF-5 cells; assay: Inhibition of proliferation of PLC-PRF-5 cells (ATPlite); format: cell-based; settings: Homo sapiens, PLC-PRF-5, PLC-PRF-5 cells; read-out: PLC-PRF-5 cell proliferation IC50
In short: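 Antiproliferative IC50 from luminescent ATP detection (ATPlite) after 96 h compound exposure at 37 °C. Cells grown in DMEM plus 10% FBS and allowed 2 h to settle, then dosed with eight 3-fold dilutions topping at 30 μM final, DMSO 0.3%.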

Chain of KDR kinase (790-1356 AA) (P35968 790-1356): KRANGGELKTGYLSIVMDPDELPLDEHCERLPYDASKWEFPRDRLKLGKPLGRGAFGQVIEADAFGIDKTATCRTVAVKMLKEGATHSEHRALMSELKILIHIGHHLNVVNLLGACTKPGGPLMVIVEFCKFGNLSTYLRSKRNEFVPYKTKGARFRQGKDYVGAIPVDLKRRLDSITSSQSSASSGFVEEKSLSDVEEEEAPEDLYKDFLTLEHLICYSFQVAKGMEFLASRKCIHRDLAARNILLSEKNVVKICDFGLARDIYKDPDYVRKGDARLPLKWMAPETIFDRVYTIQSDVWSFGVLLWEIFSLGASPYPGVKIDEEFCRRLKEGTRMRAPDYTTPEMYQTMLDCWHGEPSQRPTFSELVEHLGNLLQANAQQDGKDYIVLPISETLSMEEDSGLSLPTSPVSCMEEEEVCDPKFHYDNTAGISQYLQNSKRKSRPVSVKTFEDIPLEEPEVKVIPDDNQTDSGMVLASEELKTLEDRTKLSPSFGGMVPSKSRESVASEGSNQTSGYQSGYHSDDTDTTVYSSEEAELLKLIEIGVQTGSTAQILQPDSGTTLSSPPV

CN1CCC(c2cc(NC(=O)Nc3ccc(Oc4ccnc(NC(=O)C5CC5)c4)cc3)cc(C(F)(F)F)c2)CC1 [Exe. 143]
IC50 [1]: 9.5 nM
IC50 [2]: 5.5 nM
IC50 [3]: 13.4 nM
IC50 [4]: 892 nM

O=C(Nc1ccc(Oc2ccnc(NC(=O)C3CC3)c2)cc1)Nc1cccc(C(F)(F)F)c1 [Exe. 144]
IC50 [1]: 11.4 nM
IC50 [2]: 30 nM
IC50 [3]: 6 nM
IC50 [4]: 403 nM

CS(=O)(=O)c1cc(NC(=O)Nc2ccc(Oc3ccnc(NC(=O)C4CC4)c3)cc2)cc(C(F)(F)F)c1 [Exe. 145]
IC50 [1]: 7.6 nM
IC50 [2]: 5.1 nM
IC50 [3]: 20.7 nM
IC50 [4]: 1670 nM

O=C(Nc1ccc(Oc2ccnc(NC(=O)C3CC3)c2)cc1)Nc1cccc(OC(F)(F)F)c1 [Exe. 146]
IC50 [1]: 7.8 nM
IC50 [2]: 14 nM
IC50 [3]: 11.4 nM
IC50 [4]: 689 nM

CC(F)(F)c1ccnc(NC(=O)Nc2ccc(Oc3ccnc(NC(=O)C4CC4)c3)cc2)c1 [Exe. 147]
IC50 [1]: 11.1 nM
IC50 [2]: 15 nM
IC50 [3]: 23.8 nM
IC50 [4]: 1160 nM

CC(F)(F)c1ccc(F)c(NC(=O)Nc2ccc(Oc3ccnc(NC(=O)C4CC4)c3)cc2)c1 [Exe. 148]
IC50 [1]: 6.2 nM
IC50 [2]: 16 nM
IC50 [3]: 7.7 nM
IC50 [4]: 240 nM

CC(F)(F)c1cc(NC(=O)Nc2ccc(Oc3ccnc(NC(=O)C4CC4)c3)cc2)ccc1Cl [Exe. 149]
IC50 [1]: 25.4 nM
IC50 [2]: 38 nM
IC50 [3]: 25.4 nM
IC50 [4]: 800 nM

O=C(Nc1ccc(Oc2ccnc(NC(=O)C3CC3)c2)cc1)Nc1ccc2c(c1)C(F)(F)CCO2 [Exe. 151]
IC50 [1]: 4.5 nM
IC50 [2]: 3.3 nM
IC50 [3]: 3.6 nM
IC50 [4]: 608 nM

N#Cc1cc(NC(=O)Nc2ccc(Oc3ccnc(NC(=O)C4CC4)c3)cc2)cc(C(F)(F)F)c1 [Exe. 152]
IC50 [1]: 7.1 nM
IC50 [2]: 72 nM
IC50 [3]: 33 nM
IC50 [4]: 390 nM

O=C(Nc1ccc(Oc2ccnc(NC(=O)C3CC3)c2)c(F)c1)Nc1ccc(F)c(C(F)(F)F)c1 [Exe. 153]
IC50 [1]: 15.2 nM
IC50 [2]: 32 nM
IC50 [3]: 23 nM
IC50 [4]: 735 nM

O=C(Nc1ccc(Oc2ccnc(NC(=O)C3CC3)c2)c(F)c1)Nc1cc(C(F)(F)F)ccc1F [Exe. 156]
IC50 [1]: 8.3 nM
IC50 [2]: 37 nM
IC50 [3]: 37.7 nM
IC50 [4]: 52 nM

O=C(Nc1ccc(Oc2ccnc(NC(=O)C3CC3)c2)c(F)c1)Nc1cc(C(F)(F)F)ccc1Cl [Exe. 157]
IC50 [1]: 5.9 nM
IC50 [2]: 43 nM
IC50 [3]: 34.7 nM
IC50 [4]: 156 nM

O=C(Nc1cc(-c2ccncc2)cc(C(F)(F)F)c1)Nc1ccc(Oc2ccnc(NC(=O)C3CC3)c2)c(F)c1 [Exe. 159]
IC50 [1]: 8 nM
IC50 [2]: 35.4 nM
IC50 [3]: 44.3 nM
IC50 [4]: 642 nM

CN1CCC(Nc2cc(NC(=O)Nc3ccc(Oc4ccnc(NC(=O)C5CC5)c4)c(F)c3)cc(C(F)(F)F)c2)CC1 [Exe. 161]
IC50 [1]: 12.2 nM
IC50 [2]: 7.9 nM
IC50 [3]: 86.9 nM
IC50 [4]: 1340 nM

CC1CN(c2cc(NC(=O)Nc3ccc(Oc4ccnc(NC(=O)C5CC5)c4)c(F)c3)cc(C(F)(F)F)c2)CCO1 (stereo not shown) [Exe. 162]
IC50 [1]: 6.8 nM
IC50 [2]: 22.5 nM
IC50 [3]: 30.6 nM
IC50 [4]: 330 nM

C=CC(=O)Nc1cc(NC(=O)Nc2ccc(Oc3ccnc(NC(=O)C4CC4)c3)c(F)c2)cc(C(F)(F)F)c1 [Exe. 163]
IC50 [1]: 11.6 nM
IC50 [2]: 24 nM
IC50 [3]: 32.9 nM
IC50 [4]: 998 nM

CN1CCC(Oc2cc(NC(=O)Nc3ccc(Oc4ccnc(NC(=O)C5CC5)c4)c(F)c3)cc(C(F)(F)F)c2)CC1 [Exe. 164]
IC50 [1]: 30.7 nM
IC50 [2]: 71.5 nM
IC50 [3]: 198 nM
IC50 [4]: 2950 nM

CS(=O)(=O)Nc1cc(NC(=O)Nc2ccc(Oc3ccnc(NC(=O)C4CC4)c3)c(F)c2)cc(C(F)(F)F)c1 [Exe. 165]
IC50 [1]: 5.5 nM
IC50 [2]: 6.6 nM
IC50 [3]: 41 nM
IC50 [4]: 1070 nM

O=C(Nc1cc(N2CCS(=O)(=O)CC2)cc(C(F)(F)F)c1)Nc1ccc(Oc2ccnc(NC(=O)C3CC3)c2)c(F)c1 [Exe. 166]
IC50 [1]: 11.5 nM
IC50 [2]: 27 nM
IC50 [3]: 45.5 nM
IC50 [4]: 1640 nM

CN1CCN(Cc2cc(NC(=O)Nc3ccc(Oc4ccnc(NC(=O)C5CC5)c4)c(F)c3)cc(C(F)(F)F)c2)CC1 [Exe. 167]
IC50 [1]: 16.1 nM
IC50 [2]: 23.8 nM
IC50 [3]: 262 nM
IC50 [4]: 1230 nM

CN1CCC(Nc2ccc(NC(=O)Nc3ccc(Oc4ccnc(NC(=O)C5CC5)c4)c(F)c3)cc2C(F)(F)F)CC1 [Exe. 168]
IC50 [1]: 12 nM
IC50 [2]: 7.9 nM
IC50 [3]: 11.6 nM
IC50 [4]: 31 nM

O=C(Nc1ccc(Oc2ccnc(NC(=O)C3CC3)c2)c(F)c1)Nc1cc(C(F)(F)F)ncn1 [Exe. 170]
IC50 [1]: 5.6 nM
IC50 [2]: 96 nM
IC50 [3]: 31.6 nM
IC50 [4]: 230 nM

O=C(Nc1cccc(OC(F)(F)F)c1)Nc1ccc(Oc2ccnc(NC(=O)C3CC3)c2)c(F)c1 [Exe. 175]
IC50 [1]: 4.9 nM
IC50 [2]: 9.8 nM
IC50 [3]: 30.5 nM
IC50 [4]: 270 nM

O=C(Nc1ccc(OC(F)(F)F)cc1)Nc1ccc(Oc2ccnc(NC(=O)C3CC3)c2)c(F)c1 [Exe. 178]
IC50 [1]: 5.3 nM
IC50 [2]: 34.7 nM
IC50 [3]: 159 nM
IC50 [4]: 4880 nM

CC(F)(F)c1ccc(F)c(NC(=O)Nc2ccc(Oc3ccnc(NC(=O)C4CC4)c3)c(F)c2)c1 [Exe. 181]
IC50 [1]: 7.1 nM
IC50 [2]: 4.8 nM
IC50 [3]: 25.7 nM
IC50 [4]: 23 nM

CC(F)(F)c1cc(NC(=O)Nc2ccc(Oc3ccnc(NC(=O)C4CC4)c3)c(F)c2)ccc1Cl [Exe. 182]
IC50 [1]: 14.7 nM
IC50 [2]: 32 nM
IC50 [3]: 17 nM
IC50 [4]: 752 nM

CC(F)(F)c1cc(NC(=O)Nc2ccc(Oc3ccnc(NC(=O)C4CC4)c3)c(F)c2)ccc1F [Exe. 183]
IC50 [1]: 13.6 nM
IC50 [2]: 56 nM
IC50 [3]: 15.7 nM
IC50 [4]: 230 nM

O=C(Nc1ccc(Oc2ccnc(NC(=O)C3CC3)c2)c(F)c1)Nc1cc(Cl)ccc1F [Exe. 184]
IC50 [1]: 7.6 nM
IC50 [2]: 73.4 nM
IC50 [3]: 310 nM
IC50 [4]: 610 nM

O=C(Nc1cc(-c2cccnc2)cc(C(F)(F)F)c1)Nc1ccc(Oc2ccnc(NC(=O)C3CC3)c2)c(F)c1 [Exe. 186]
IC50 [1]: 5 nM
IC50 [2]: 27.5 nM
IC50 [3]: 53.3 nM
IC50 [4]: 640 nM

CC(C)Nc1cc(NC(=O)Nc2ccc(Oc3ccnc(NC(=O)C4CC4)c3)c(F)c2)cc(C(F)(F)F)c1 [Exe. 187]
IC50 [1]: 6.8 nM
IC50 [2]: 34.3 nM
IC50 [3]: 63.8 nM
IC50 [4]: 638 nM

CN1CCC(Oc2ccc(NC(=O)Nc3ccc(Oc4ccnc(NC(=O)C5CC5)c4)c(F)c3)cc2C(F)(F)F)CC1 [Exe. 188]
IC50 [1]: 17.2 nM
IC50 [2]: 19 nM
IC50 [3]: 23.5 nM
IC50 [4]: 34 nM

From US9359338B2, “Cyclopropanecarboxamido-substitute aromatic compounds as anti-tumor agents” (Crown Bioscience Inc. (Taiwan), priority 2012, dated 2016)
